Experimental data taken from ChEMBL document CHEMBL1201862, “PubChem BioAssay data set” (2004).
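In this assay, cells in 96-well plates receive the compound at five concentrations for 48 hours. Endpoints are linearly interpolated between the surrounding concentrations. GI50 = concentration required for 50% inhibition of growth.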 Active and inactive are the calls of the source. No stated cut-off is given here; in the data, active = GI50 up to about 1.1 µM and inactive = higher.

What was measured:
Test in all cases: NCI-60 cell line screen, 48 h
[1] = test system: LXFL 529
[2] = test system: NCI-H460
[3] = test system: SNB-75
[4] = test system: SN12C
[5] = test system: SF-268
[6] = test system: Malme-3M
[7] = test system: K562
[8] = test system: HOP-18
[9] = test system: NCI-H522
[10] = test system: UACC-257
[11] = test system: OVCAR-4
[12] = test system: SK-OV-3
[13] = test system: RXF 393
[14] = test system: SK-MEL-28
[15] = test system: SK-MEL-5
[16] = test system: CAKI-1
[17] = test system: CCRF-CEM
[18] = test system: SF-295
[19] = test system: DLD-1
[20] = test system: SNB-19
[21] = test system: UO-31
[22] = test system: UACC-62
[23] = test system: RPMI-8226
[24] = test system: A549
[25] = test system: U-251
[26] = test system: HCT-15
[27] = test system: A498
[28] = test system: TK-10
[29] = test system: HOP-92
[30] = test system: DMS-273
[31] = test system: M14
[32] = test system: 786-0
[33] = test system: M19-MEL
[34] = test system: KM12
[35] = test system: OVCAR-3
[36] = test system: SNB-78
[37] = test system: HL-60
[38] = test system: SF-539
[39] = test system: IGROV-1
[40] = test system: EKVX
[41] = test system: COLO 205
[42] = test system: ACHN
[43] = test system: OVCAR-8
[44] = test system: MOLT-4
[45] = test system: KM-20L2
[46] = test system: HCC 2998
[47] = test system: NCI-H226
[48] = test system: SK-MEL-2
[49] = test system: NCI-H23
[50] = test system: OVCAR-5
[51] = test system: LOX IMVI
[52] = test system: XF498
[53] = test system: HCT-116
[54] = test system: HOP-62
[55] = test system: HT-29
[56] = test system: RXF 631
[57] = test system: DMS-114
[58] = test system: SR
[59] = test system: SW-620

`CCOC(=O)C1=C(OC(OCC)C(CC)[Se]c2ccccc2)CCCC1` (stereo unspecified) was tested, and the GI50 [1] was 20.5 µM (inactive), the GI50 [2] was 36.4 µM (inactive) and the GI50 [3] was 16.9 µM (inactive). The GI50 [4] was 14.6 µM (inactive), the GI50 [5] was 19 µM (inactive) and the GI50 [6] was 16.9 µM (inactive). The GI50 [7] was 34.2 µM (inactive), the GI50 [8] was 29.7 µM (inactive) and the GI50 [9] was 14.6 µM (inactive). For the same molecule, the GI50 [10] was 35 µM (inactive), the GI50 [11] was 14.5 µM (inactive) and the GI50 [12] was > 100 µM (inactive). The GI50 [13] was 20.5 µM (inactive), the GI50 [14] was 40.5 µM (inactive) and the GI50 [15] was 12.6 µM (inactive). For the same molecule, the GI50 [16] was 37.3 µM (inactive), the GI50 [17] was 11.4 µM (inactive) and the GI50 [18] was 19.1 µM (inactive). The GI50 [19] was 17.5 µM (inactive), the GI50 [20] was 40.6 µM (inactive) and the GI50 [21] was 35.3 µM (inactive). For the same molecule, the GI50 [22] was 19.8 µM (inactive), the GI50 [23] was 13 µM (inactive) and the GI50 [24] was 45.3 µM (inactive). For the same molecule, the GI50 [25] was 12.6 µM (inactive), the GI50 [26] was 16.9 µM and the GI50 [27] was > 100 µM (inactive). The GI50 [28] was > 100 µM (inactive), the GI50 [29] was 21.2 µM (inactive) and the GI50 [30] was 15.1 µM (inactive). The GI50 [31] was 15.6 µM (inactive), the GI50 [32] was 15.6 µM (inactive) and the GI50 [33] was 15.6 µM (inactive). The GI50 [34] was > 100 µM (inactive), the GI50 [35] was 21.1 µM (inactive) and the GI50 [36] was 22.3 µM (inactive). For the same molecule, the GI50 [37] was 15.9 µM (inactive), the GI50 [38] was 17.8 µM (inactive) and the GI50 [39] was 26.8 µM (inactive). For the same molecule, the GI50 [40] was 34.4 µM (inactive), the GI50 [41] was 34.7 µM (inactive) and the GI50 [42] was 28.1 µM (inactive). For the same molecule, the GI50 [43] was 19.1 µM (inactive), the GI50 [44] was 14.7 µM (inactive) and the GI50 [45] was 19.8 µM (inactive). The GI50 [46] was 13.4 µM (inactive), the GI50 [47] was 21.8 µM (inactive) and the GI50 [48] was 8.32 µM (inactive). The GI50 [49] was 10.9 µM (inactive), the GI50 [50] was 26.3 µM (inactive) and the GI50 [51] was 4.54 µM (inactive). The GI50 [52] was 20 µM (inactive), the GI50 [53] was 17.5 µM (inactive) and the GI50 [54] was 54.2 µM (inactive). For the same molecule, the GI50 [55] was 24.7 µM (inactive) and the GI50 [56] was 10.2 µM (inactive).

`O=C1C2[C@@H](C(=O)N1c1ccc(Br)cc1)C13C(=CC2([N+](=O)[O-])[C@@H]2C(=O)N(c4ccc(Br)cc4)C(=O)[C@@H]21)c1ccccc1N3c1ccccc1` (stereo partly specified) was tested, and the GI50 [3] was > 100 µM (inactive), the GI50 [4] was > 100 µM (inactive) and the GI50 [5] was 11.6 µM (inactive). The GI50 [6] was > 100 µM (inactive), the GI50 [7] was > 100 µM (inactive) and the GI50 [8] was > 100 µM (inactive). The GI50 [9] was > 100 µM (inactive), the GI50 [10] was > 100 µM (inactive) and the GI50 [13] was > 100 µM (inactive). The GI50 [14] was > 100 µM (inactive), the GI50 [57] was > 100 µM (inactive) and the GI50 [17] was 46.7 µM (inactive). For the same molecule, the GI50 [58] was 83 µM (inactive), the GI50 [18] was > 100 µM (inactive) and the GI50 [19] was > 100 µM (inactive). For the same molecule, the GI50 [20] was > 100 µM (inactive), the GI50 [21] was 18.9 µM (inactive) and the GI50 [23] was > 100 µM (inactive). The GI50 [24] was > 100 µM (inactive), the GI50 [25] was > 100 µM (inactive) and the GI50 [26] was greater than 100 µM. The GI50 [28] was > 100 µM (inactive), the GI50 [29] was > 100 µM (inactive) and the GI50 [31] was > 100 µM (inactive). The GI50 [32] was 13.7 µM (inactive), the GI50 [33] was > 100 µM (inactive) and the GI50 [34] was > 100 µM (inactive). The GI50 [35] was > 100 µM (inactive), the GI50 [36] was > 100 µM (inactive) and the GI50 [37] was > 100 µM (inactive). For the same molecule, the GI50 [38] was > 100 µM (inactive), the GI50 [40] was > 100 µM (inactive) and the GI50 [41] was 25.8 µM (inactive). For the same molecule, the GI50 [42] was > 100 µM (inactive), the GI50 [43] was > 100 µM (inactive) and the GI50 [44] was > 100 µM (inactive). The GI50 [59] was > 100 µM (inactive), the GI50 [46] was > 100 µM (inactive) and the GI50 [47] was > 100 µM (inactive). For the same molecule, the GI50 [48] was > 100 µM (inactive), the GI50 [49] was > 100 µM (inactive) and the GI50 [50] was > 100 µM (inactive). For the same molecule, the GI50 [51] was > 100 µM (inactive), the GI50 [52] was 39.3 µM (inactive) and the GI50 [56] was > 100 µM (inactive).
